Test results from US20090105221A1, “MUSCARINIC RECEPTOR ANTAGONISTS” (RANBAXY LABORATORIES LIMITED, priority 2004, published 2009).

- melting point: 85.2 °C
Compound: O=C(NCC1C2CCC1CNC2)C(O)(c1ccccc1)c1ccccc1 (stereo not shown)
